For series [1], the system named is Trypanosoma cruzi. As to the kind of experiment: Antitrypanosomal activity against intracellular amastigote stage of Trypanosoma cruzi Y infected in human U2OS cells measured after 96 hrs by DRAQ5 dye based microscopic analysis. It is filed as functional, organism-based.
The test system of series [2] is Leishmania infantum. The experiment in a line: Antileishmanial activity against luciferase expressing intracellular amastigote stage of Leishmania infantum infected in human THP1 cells assessed as parasite growth inhibition measured after 48 to 72 hrs by steady-glo luciferase assay. Type of series: functional, organism-based. To be noted: Leishmania infantum, THP-1; read-out: EC50.

The subject of series [3] is Leishmania donovani. The experiment in a line: Antileishmanial activity against promastigote form of Leishmania donovani assessed as parasite growth inhibition. Type of series: functional, organism-based.
The subject of a further series is 786-0. As to the kind of experiment: Mitochondrial toxicity in human 786-0 cells at 10 uM incubated with compound for 6 hrs followed by incubation with MitoTracker Red chloromethyl-X-rosamine dye for 45 mins by imaging analysis. It is filed as cell-based. To be noted: 786-0, 6 h.
Series [4] relates to Trypanosoma cruzi. As to the kind of experiment: Antitrypanosomal activity against Trypanosoma cruzi strain Y trypomastigotes infected in human HG39 cells by TaqMan probe based RT-PCR analysis. Type of series: functional, organism-based. For orientation: In qPCR the cycle at which signal appears reflects the starting amount.
For series [5], the system named is Leishmania donovani. The experiment in a line: Antileishmanial activity against Leishmania donovani BPK091 promastigotes transfected with Leishmania donovani BPK190 genomic cosmid DNA assessed as parasite growth at IC50 concentration incubated with compound for 3 days under selective pressure and selection cycle repeated 10 times and measured at 37 days of selection relative to control. It is filed as functional.

For the next series, the target named is T1, CYP1A2 (Homo sapiens, UniProt P05177).
T1 sequence (P05177 whole entry): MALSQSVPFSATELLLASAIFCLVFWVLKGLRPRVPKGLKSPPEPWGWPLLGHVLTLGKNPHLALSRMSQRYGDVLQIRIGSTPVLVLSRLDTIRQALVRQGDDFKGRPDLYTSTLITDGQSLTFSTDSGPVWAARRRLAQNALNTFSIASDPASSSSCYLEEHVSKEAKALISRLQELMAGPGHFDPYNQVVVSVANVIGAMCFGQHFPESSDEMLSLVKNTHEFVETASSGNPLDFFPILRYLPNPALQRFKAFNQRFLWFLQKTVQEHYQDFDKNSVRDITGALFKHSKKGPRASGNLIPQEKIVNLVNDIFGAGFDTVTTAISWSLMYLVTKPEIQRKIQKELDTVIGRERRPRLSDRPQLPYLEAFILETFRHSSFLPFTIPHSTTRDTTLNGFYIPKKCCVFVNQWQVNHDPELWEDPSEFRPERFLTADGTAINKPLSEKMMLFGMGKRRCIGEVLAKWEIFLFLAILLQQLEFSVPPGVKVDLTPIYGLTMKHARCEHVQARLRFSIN
As to the kind of experiment: Inhibition of human microsomal CYP1A2 expressed in baculovirus infected insect cells at 10 uM using luciferin-1A2 as substrate preincubated with enzyme/substrate mixture for 30 mins followed by further incubation with NADPH for 30 mins by CYP450 luciferase Glo assay relative to control. To be noted: probe luciferin-1A2. Type of series: ADME.

In a further series the target is hERG (KCNH2) (Homo sapiens, UniProt Q12809). The experiment in a line: Inhibition of human ERG at 10 uM incubated for 2 hrs by fluorescence polarization assay relative to control. Background: Fluorescence polarisation rises when a labelled molecule tumbles more slowly, as on binding a larger partner.
The next series has as its target CYP3A4 (Homo sapiens, UniProt P08684). The experiment in a line: Inhibition of human microsomal CYP3A4 expressed in baculovirus infected insect cells at 10 uM using luciferin-IPA as substrate preincubated with enzyme/substrate mixture for 30 mins followed by further incubation with NADPH for 30 mins by CYP450 luciferase Glo assay relative to control. Type of series: ADME. As to conditions: probe luciferin-IPA.

Series [6] has as its system Trypanosoma cruzi. As to the kind of experiment: Antitrypanosomal activity against intracellular amastigote stage of Trypanosoma cruzi Silvio X10/1 infected in human U2OS cells measured after 96 hrs by DRAQ5 dye based microscopic analysis. Type of series: functional, organism-based.
Series [7] concerns Trypanosoma cruzi. As to the kind of experiment: Antitrypanosomal activity against intracellular amastigote stage of Trypanosoma cruzi CL Brener infected in human U2OS cells measured after 96 hrs by DRAQ5 dye based microscopic analysis. Type of series: functional, organism-based.
Series [8] is described as follows: Thermodynamic solubility of the compound in water at >50 uM. Type of series: physicochemical. As to conditions: buffer.
Series [9] in a line: Cytotoxicity against human A549 cells assessed as cell growth at […] incubated for 48 hrs by Celltiter-Glo luminescence assay relative to control. It is filed as cell-based. Also on record: dose or concentration left out as unconfirmed. To be noted: read-out: Activity. In general terms: ATP-based viability assays read luminescence as a measure of living cells.
The target in another series is CYP2C19 (Homo sapiens, UniProt P33261). As to the kind of experiment: Inhibition of human microsomal CYP2C19 expressed in baculovirus infected insect cells at 10 uM using luciferin-H EGE as substrate preincubated with enzyme/substrate mixture for 30 mins followed by further incubation with NADPH for 30 mins by CYP450 luciferase Glo assay relative to control. It is filed as ADME. To be noted: probe luciferin-H EGE.

Another series relates to Leishmania major. The experiment in a line: Antileishmanial activity against promastigote form of Leishmania major assessed as parasite growth inhibition. It is filed as functional, organism-based.
The next series addresses CYP2D6 (Homo sapiens, UniProt P10635). As to the kind of experiment: Inhibition of human microsomal CYP2D6 expressed in baculovirus infected insect cells at 10 uM using luciferin-ME as substrate preincubated with enzyme/substrate mixture for 30 mins followed by further incubation with NADPH for 30 mins by CYP450 luciferase Glo assay relative to control. Type of series: ADME. To be noted: probe luciferin-ME.

For a further series, the system named is Trypanosoma brucei. As to the kind of experiment: Antitrypanosomal activity against Trypanosoma brucei bloodstream form assessed as parasite growth inhibition incubated for 72 hrs by resazurin dye based assay. It is filed as functional, organism-based. As to conditions: Trypanosoma brucei, 72 h; read-out: EC50.
For series [10], the system named is Trypanosoma cruzi. As to the kind of experiment: Antitrypanosomal activity against intracellular amastigote stage of Trypanosoma cruzi 92.80 cl2 infected in human U2OS cells measured after 96 hrs by DRAQ5 dye based microscopic analysis. It is filed as functional, organism-based.
In series [11] the test system is Trypanosoma cruzi. As to the kind of experiment: Antitrypanosomal activity against intracellular amastigote stage of Trypanosoma cruzi ARMA 13 cl1 infected in human U2OS cells measured after 96 hrs by DRAQ5 dye based microscopic analysis. Type of series: functional, organism-based.
Series [12] in a line: Toxicity in Syrian hamster infected with Leishmania infantum BCN150 promastigotes assessed as spleen weight at 40 mg/kg/day, po for 10 days formulated with 8% v/v DMSO (reference value: 0.182 +/- 0.036 g). Type of series: organism-based, Mesocricetus auratus. As to conditions: in vivo, 240 h.
Series [13] can be described thus: Chemical stability of compound in PBS assessed as decrease in absorbance at 60 uM at pH 7 to 8 and 25 degC measured within 50 mins under dark conditions by UV-vis spectrophotometry analysis. As to conditions: read-out: Drug degradation. Type of series: physicochemical.
In series [14] the test system is Leishmania donovani. As to the kind of experiment: Antileishmanial activity against antimony sensitive Leishmania donovani BPK091 promastigotes infected in C57BL/6 mouse bone marrow-derived macrophages assessed as reduction in parasite load at 5 uM treated with compound at 24 hrs post-infection measured after 72 hrs post infection by q-PCR analysis relative to control. It is filed as functional.

Another series deals with Albumin (Homo sapiens, UniProt P02768). As to the kind of experiment: Binding affinity to human serum albumin in phosphate buffer assessed as decrease in emission intensity at 450 nm at 5 uM measured at pH 8 at albumin concentration of 0.6 +/-0.1 uM by fluorescence emission spectrum analysis. It is filed as ADME. The arrangement: scale not given: the % may be the effect or the level left. As to conditions: isolated protein.

Series [15] concerns Leishmania infantum. The experiment in a line: Antileishmanial activity against Leishmania infantum amastigotes infected in Syrian hamster assessed as reduction in parasite load at 40 mg/kg/day, po for 10 days formulated with 50% v/v cyclodextrin relative to control. Type of series: functional. As to conditions: 240 h.
Series [16] in a line: Toxicity in Syrian hamster infected with Leishmania infantum BCN150 promastigotes assessed as effect on alkaline phosphatase level at 40 mg/kg/day, po for 10 days formulated with 8% v/v DMSO measured after the last treatment. Type of series: organism-based, Mesocricetus auratus. To be noted: in vivo, 240 h.
Series [17] is described as follows: Toxicity in Syrian hamster infected with Leishmania infantum BCN150 promastigotes assessed as spleen weight at 40 mg/kg/day, po for 10 days formulated with 50% v/v cyclodextrin (reference value: 0.191 +/- 0.061 g). It is filed as organism-based, Mesocricetus auratus. To be noted: in vivo, 240 h.

Molecules are shown by their SMILES. The source made the active and inactive calls. The calls are words filed in the database; no cut-off is given here.

Chain of CYP3A4 (P08684 whole entry): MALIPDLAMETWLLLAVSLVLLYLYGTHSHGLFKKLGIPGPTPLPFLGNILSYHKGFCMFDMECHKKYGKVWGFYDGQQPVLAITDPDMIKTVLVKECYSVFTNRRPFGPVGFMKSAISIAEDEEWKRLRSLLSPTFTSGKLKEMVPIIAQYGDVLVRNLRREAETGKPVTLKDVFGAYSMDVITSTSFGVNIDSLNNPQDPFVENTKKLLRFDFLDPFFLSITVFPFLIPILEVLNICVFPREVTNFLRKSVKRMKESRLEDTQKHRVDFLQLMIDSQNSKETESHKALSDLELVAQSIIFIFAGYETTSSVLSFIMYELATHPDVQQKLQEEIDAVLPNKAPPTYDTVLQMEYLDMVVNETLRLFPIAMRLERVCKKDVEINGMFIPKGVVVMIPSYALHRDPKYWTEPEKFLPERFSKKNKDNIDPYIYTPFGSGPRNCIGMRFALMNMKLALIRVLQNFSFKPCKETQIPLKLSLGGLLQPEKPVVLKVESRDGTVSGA
Chain of hERG (KCNH2) (Q12809 whole entry): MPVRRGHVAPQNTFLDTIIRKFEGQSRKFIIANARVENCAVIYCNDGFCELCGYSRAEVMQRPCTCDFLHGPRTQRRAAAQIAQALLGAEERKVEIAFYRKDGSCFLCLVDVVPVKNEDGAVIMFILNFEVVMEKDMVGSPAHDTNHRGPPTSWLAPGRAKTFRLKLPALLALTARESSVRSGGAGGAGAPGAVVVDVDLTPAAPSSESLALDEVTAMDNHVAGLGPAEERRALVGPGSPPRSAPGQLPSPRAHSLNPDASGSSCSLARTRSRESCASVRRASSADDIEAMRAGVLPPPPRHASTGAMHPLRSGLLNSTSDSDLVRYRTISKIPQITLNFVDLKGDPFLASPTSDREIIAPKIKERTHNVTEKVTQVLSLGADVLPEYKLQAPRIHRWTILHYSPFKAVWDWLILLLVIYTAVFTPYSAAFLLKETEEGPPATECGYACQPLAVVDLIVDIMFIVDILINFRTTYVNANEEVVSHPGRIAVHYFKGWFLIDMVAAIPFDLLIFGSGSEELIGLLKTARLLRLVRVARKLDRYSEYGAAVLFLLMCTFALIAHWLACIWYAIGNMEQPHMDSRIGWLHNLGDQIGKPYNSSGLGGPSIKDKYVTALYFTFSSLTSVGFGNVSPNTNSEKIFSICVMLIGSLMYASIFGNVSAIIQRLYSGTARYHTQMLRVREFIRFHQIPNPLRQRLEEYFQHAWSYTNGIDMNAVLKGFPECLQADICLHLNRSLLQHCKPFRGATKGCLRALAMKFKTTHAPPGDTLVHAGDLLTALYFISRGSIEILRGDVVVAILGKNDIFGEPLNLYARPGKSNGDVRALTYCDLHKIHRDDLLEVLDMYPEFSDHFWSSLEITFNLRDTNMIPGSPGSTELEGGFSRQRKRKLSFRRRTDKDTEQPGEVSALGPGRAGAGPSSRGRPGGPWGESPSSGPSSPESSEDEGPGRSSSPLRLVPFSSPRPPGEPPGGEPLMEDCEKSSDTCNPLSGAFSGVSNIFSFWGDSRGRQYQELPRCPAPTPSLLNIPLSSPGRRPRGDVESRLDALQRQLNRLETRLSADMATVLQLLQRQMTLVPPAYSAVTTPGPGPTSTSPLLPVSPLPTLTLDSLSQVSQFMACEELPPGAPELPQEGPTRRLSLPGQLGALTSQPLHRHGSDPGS
Chain of CYP2C19 (P33261 whole entry): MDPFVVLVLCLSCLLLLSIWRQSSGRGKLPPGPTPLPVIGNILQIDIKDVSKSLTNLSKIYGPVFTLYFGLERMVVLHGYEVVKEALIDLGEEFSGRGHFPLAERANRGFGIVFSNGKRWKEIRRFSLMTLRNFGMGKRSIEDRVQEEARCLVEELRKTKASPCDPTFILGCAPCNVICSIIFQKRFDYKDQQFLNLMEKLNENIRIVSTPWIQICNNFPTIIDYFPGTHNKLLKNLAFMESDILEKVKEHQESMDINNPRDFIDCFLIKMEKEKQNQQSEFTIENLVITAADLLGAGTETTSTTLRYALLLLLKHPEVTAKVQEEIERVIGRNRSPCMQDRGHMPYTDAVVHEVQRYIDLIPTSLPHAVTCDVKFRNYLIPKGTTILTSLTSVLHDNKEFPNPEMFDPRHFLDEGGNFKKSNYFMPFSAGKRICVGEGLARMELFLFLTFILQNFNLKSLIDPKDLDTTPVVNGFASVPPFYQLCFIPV
Chain of CYP2D6 (P10635 whole entry): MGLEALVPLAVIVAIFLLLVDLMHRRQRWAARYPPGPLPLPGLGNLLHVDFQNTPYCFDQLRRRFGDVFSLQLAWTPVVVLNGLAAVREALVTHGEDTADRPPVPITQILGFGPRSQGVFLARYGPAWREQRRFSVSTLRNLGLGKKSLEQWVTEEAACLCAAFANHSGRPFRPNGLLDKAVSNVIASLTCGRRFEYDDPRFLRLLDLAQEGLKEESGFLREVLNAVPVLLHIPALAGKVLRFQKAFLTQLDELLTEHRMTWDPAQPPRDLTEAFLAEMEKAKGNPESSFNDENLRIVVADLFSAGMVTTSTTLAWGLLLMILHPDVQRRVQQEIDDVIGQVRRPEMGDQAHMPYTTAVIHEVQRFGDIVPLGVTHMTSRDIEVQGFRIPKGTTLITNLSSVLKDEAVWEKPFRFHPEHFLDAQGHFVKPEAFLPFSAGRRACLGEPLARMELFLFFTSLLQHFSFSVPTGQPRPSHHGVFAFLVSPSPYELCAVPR
Chain of Albumin (P02768 whole entry): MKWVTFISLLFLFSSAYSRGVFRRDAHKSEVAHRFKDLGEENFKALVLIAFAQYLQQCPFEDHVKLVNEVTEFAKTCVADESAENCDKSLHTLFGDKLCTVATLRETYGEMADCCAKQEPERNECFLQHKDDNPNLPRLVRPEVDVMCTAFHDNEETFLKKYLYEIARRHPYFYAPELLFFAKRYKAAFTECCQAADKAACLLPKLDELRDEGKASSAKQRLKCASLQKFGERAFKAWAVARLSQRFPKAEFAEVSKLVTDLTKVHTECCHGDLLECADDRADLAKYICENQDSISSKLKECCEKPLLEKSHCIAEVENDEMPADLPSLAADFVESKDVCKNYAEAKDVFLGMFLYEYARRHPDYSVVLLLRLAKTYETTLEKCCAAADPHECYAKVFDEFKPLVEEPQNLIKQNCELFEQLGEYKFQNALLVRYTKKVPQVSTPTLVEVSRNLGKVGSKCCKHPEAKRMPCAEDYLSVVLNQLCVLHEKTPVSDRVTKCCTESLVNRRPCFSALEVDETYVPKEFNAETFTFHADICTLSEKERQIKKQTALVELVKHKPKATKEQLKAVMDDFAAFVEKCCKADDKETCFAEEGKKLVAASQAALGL

Regarding `CCCCCCCCCCCCCCCCOP(=O)([O-])OCC[N+](C)(C)C` [MILTEFOSINE], the inhibition result in the series with Trypanosoma cruzi [1], in the series on Trypanosoma cruzi [6], in the series on Trypanosoma cruzi [7], with Leishmania major, with Trypanosoma cruzi [10] and in the series on Trypanosoma cruzi [11] was “Active” in each case. In addition, the EC50 (in general, the concentration at which the effect is half-maximal) was 2510 to 3200 nM in the series on Leishmania infantum [2], 9000 nM in the series with Leishmania donovani [3], 12500 nM in the series on Trypanosoma cruzi [4] and 34000 nM in the series on Trypanosoma brucei. For the same molecule, the Activity is recorded as 3.4% in the series on 786-0 and >50% in the series with Leishmania donovani [5]. Moreover, the inhibition (as a rule, the relative decrease from the control value, in per cent) at 0.5 h, 10 µM was -20% on CYP1A2, 8.4% on CYP3A4, 7.9% on CYP2C19 and 30.8% at CYP2D6. Moreover, the inhibition at 2 h, 10 µM against hERG (KCNH2) is -16.9%. In series [8], the Therm_solubility result was “Insoluble”. In addition, the viability at 48 h in [9] came to 95.8%.
On to `COc1ccc2oc(-c3csc4ccccc34)c(O)c(=O)c2c1`, for which the Activity is given as 0.19 g in series [12]; -22.85% with 786-0; >50% with Leishmania donovani [5]; 50% at Albumin; “Non-Toxic” in [16]; 0.191 g in series [17]. Besides, the concentration giving a half-maximal response (EC50) in the series on Trypanosoma cruzi [1] came to 900 nM; with Leishmania infantum [2] it was 1880 nM; with Leishmania donovani [3], 3400 nM; with Trypanosoma cruzi [4], 7500 nM; in the series with Trypanosoma cruzi [6] (Silvio X10/1, U2OS), 300 nM; in the series on Trypanosoma cruzi [7] it was 600 nM. The EC50 in the series on Leishmania major is 6700 nM; in the series on Trypanosoma brucei it was 800 nM; in the series on Trypanosoma cruzi [10] (92.80 cl2, U2OS), 700 nM; with Trypanosoma cruzi [11] (ARMA 13 cl1, U2OS), 1200 nM. Further, the degraded at 50 min, 60 µM in series [13] was 80%. In the series with Leishmania donovani [14], the inhibition at 5 µM worked out at 36%. Also, the inhibition at 0.5 h, 10 µM is 99.7% on CYP1A2, 23.3% at CYP3A4, -6.32% on CYP2C19 and 26.2% at CYP2D6. The inhibition at 2 h, 10 µM against hERG (KCNH2) came to 32%. Further, in series [8], the Therm_solubility entry is given as “Insoluble”. Besides, in [9], the viability at 48 h amounted to 3.19%. The inhibition in vivo (usually the relative decrease from the control value, in per cent) at 40 mg/kg/day with Leishmania infantum [15] stood at 35.8%.

(Values after ChEMBL document CHEMBL4311972, “Discovery of a benzothiophene-flavonol halting miltefosine and antimonial drug resistance in Leishmania parasites through the application of medicinal chemistry, screening and genomics” (Eur J Med Chem, 2019).)
